Test results taken from US10774051B2, “6-membered heterocyclic derivatives and pharmaceutical composition comprising the same” (Shionogi & Co., Ltd., priority 2015, dated 2020).

target: human P2X7 receptor (Homo sapiens, UniProt Q99572, R270H/Y155H); test: Evaluation of human P2X7 receptor inhibitory activity (Yo-Pro uptake, BzATP stimulation, FLIPR TETRA); format: cell-based; settings: 1321N1 cells stably expressing human P2X7 receptor; BzATP stimulation, Yo-Pro uptake; read-out: IC50 (antagonistic activity for the human P2X7 receptor)
How it was run: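 1321N1 cells stably expressing human P2X7 (T606C/G952A SNP variant), in HBSS buffer pH 7.4-7.5 with Yo-Pro, stimulated with BzATP; compound added 8 min after agonist. Fluorescence followed for 20 min on FLIPR; max-minus-min change gave % inhibition, IC50 by logistic fit.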

Structure (SMILES)	IC50 [nM]
COc1cn(Cc2cccc(Cl)c2)c(Nc2cccc3[nH]c(C)cc23)nc1=O [Compound I-0487]	25

same assay, conditions: 1321N1 cells stably expressing human P2X7 receptor; BzATP stimulation, Yo-Pro uptake; read-out: IC50 (antagonistic activity for the human P2X7 receptor), class symbol

Structure (SMILES)	IC50 [nM]
COc1cn(Cc2ccccc2)c(NCc2ccccc2Oc2ccc(C)cc2)nc1=O [Compound I-0066]	500 to 1000
COc1cc(C)c(Nc2nc(=O)c(OC)cn2Cc2ccc(F)c(Cl)c2)cc1C [Compound I-0230]	< 10
COc1cc(Nc2nc(=O)c(OC)cn2Cc2ccccc2)c(C)cc1Cl [Compound I-0473]	< 10
Cc1cccc(Nc2nc(=O)c(F)cn2Cc2cccc(Cl)c2)c1C [Compound I-0224]	< 10
COc1cn(Cc2ccc(F)c(Cl)c2)c(Nc2cc(C)cc(C)c2C)nc1=O [Compound I-0502]	10 to 100
COc1cn(Cc2ccccc2Cl)c(Nc2cc(C)c(Cl)cc2C)nc1=O [Compound I-0170]	100 to 500
COc1cn(Cc2ccc(Cl)cc2)c(Nc2cccc(Cl)c2C)nc1=O [Compound I-0127]	10 to 100
COc1cn(Cc2ccccc2)c(Nc2cc(OC(C)C)ccc2C)nc1=O [Compound I-0320]	100 to 500
COc1cn(Cc2ccc(F)c(Cl)c2)c(Nc2cc(SC(F)(F)F)ccc2C)nc1=O [Compound I-0546]	10 to 100
COc1cn(Cc2ccc(F)c(F)c2)c(Nc2cc(C)c(C)cc2C)nc1=O [Compound I-0277]	< 10
CCc1cc(F)ccc1Nc1nc(=O)c(OC)cn1Cc1ccc(F)c(Cl)c1 [Compound I-0420]	10 to 100
COc1cn(Cc2ccc(F)c(Cl)c2)c(Nc2cccc3c(=O)[nH]ccc23)nc1=O [Compound I-0398]	10 to 100
COc1cn(Cc2ccccc2)c(Nc2cc(-n3c(C)ccc3C)ccc2C)nc1=O [Compound I-0525]	100 to 500
COc1cn(Cc2cc(F)cc(Cl)c2)c(Nc2cc3[nH]ncc3cc2C)nc1=O [Compound I-0580]	10 to 100
COc1cn(Cc2cc(F)ccc2F)c(Nc2cccc(Cl)c2C)nc1=O [Compound I-0328]	10 to 100

same assay, conditions: antagonistic activity for the human P2X7 receptor; read-out: IC50

Structure (SMILES)	IC50 [nM]
C=C(C)c1ccc(C)c(Nc2nc(=O)c(OC)cn2Cc2cc(F)cc(Cl)c2)c1 [Compound I-0748]	10 to 100
COc1cn(Cc2cc(F)cc(F)c2)c(Nc2cc(Cl)c(F)cc2C)nc1=O [Compound I-0812]	10 to 100
COc1ccc(Nc2cc(=O)c(OC)cn2Cc2ccccc2)c(C)c1 [Compound I-0959]	500 to 1000
COc1cn(Cc2ccc(F)c(Cl)c2)c(Nc2cc(C(F)(F)F)ccc2C)cc1=O [Compound I-0956]	100 to 500
CCc1cc(OC)ccc1Nc1nc(=O)c(F)cn1Cc1cc(F)c(F)c(F)c1 [Compound I-1197]	< 10
COc1cn(Cc2ccccc2)c(Nc2cc(C(C)(C)O)ccc2C)nc1=O [Compound I-0731]	10 to 100
COc1cn(Cc2cccc(F)c2)c(Nc2cccc(C)c2Cl)nc1=O [Compound I-0643]	10 to 100
COc1cn(Cc2ccc(F)c(Cl)c2)c(Nc2ccc3ncsc3c2C)nc1=O [Compound I-0856]	10 to 100
COc1ccc(Nc2nc(=O)c(C(=O)O)cn2Cc2cc(F)c(F)c(F)c2)c(C)c1 [Compound I-1099]	10 to 100
COc1cn(Cc2ccccc2)c(Nc2cc(N3CCOCC3)ccc2C)nc1=O [Compound I-0740]	100 to 500
O=c1nc(Nc2cccc3c2CCCO3)n(Cc2cc(F)c(F)c(F)c2)cc1F [Compound I-1173]	< 10
COc1cn(Cc2ccc(F)c(Cl)c2)c(Nc2cc(OC(F)F)c(C)cc2C)nc1=O [Compound I-0876]	< 10
Cc1ccc(N2CC3CCC2C3)cc1Nc1nc(=O)c(F)cn1Cc1cc(F)c(F)c(F)c1 (stereo not drawn) [Compound I-1053]	10 to 100
COc1cc(C)c(Nc2nc(=O)c(OC)cn2Cc2ccc(F)c(F)c2)cc1Cl [Compound I-0616]	< 10
CCOc1ccc(Cl)c(Nc2nc(=O)c(F)cn2Cc2cc(F)c(F)c(F)c2)c1 [Compound I-1217]	< 10
CCc1cc(OC)c(OC)cc1Nc1nc(=O)c(F)cn1Cc1cc(F)c(F)c(F)c1 [Compound I-1220]	< 10
CCOC(=O)c1nn(Cc2cc(F)c(F)c(F)c2)c(Nc2cc(OC)c(OC)cc2C)nc1=O [Compound I-1252]	10 to 100
